# Reference: US20120214847A1, “2-[1-PHENYL-5-HYDROXY-4a-SUBSTITUTED-HEXAHYDROCYCLOPENTA[F]INDAZOL-5-YL]ETHYL PHENYL DERIVATIVES AS GLUCOCORTICOID RECEPTOR LIGANDS” (Merck Sharp & Dohme Corp., priority 2009, published 2012)
# Target: T1, human GR (Homo sapiens, UniProt P04150)
# T1 construct: naturally expresses the human GR; endogenous in cells
# T1 sequence (P04150 1-777): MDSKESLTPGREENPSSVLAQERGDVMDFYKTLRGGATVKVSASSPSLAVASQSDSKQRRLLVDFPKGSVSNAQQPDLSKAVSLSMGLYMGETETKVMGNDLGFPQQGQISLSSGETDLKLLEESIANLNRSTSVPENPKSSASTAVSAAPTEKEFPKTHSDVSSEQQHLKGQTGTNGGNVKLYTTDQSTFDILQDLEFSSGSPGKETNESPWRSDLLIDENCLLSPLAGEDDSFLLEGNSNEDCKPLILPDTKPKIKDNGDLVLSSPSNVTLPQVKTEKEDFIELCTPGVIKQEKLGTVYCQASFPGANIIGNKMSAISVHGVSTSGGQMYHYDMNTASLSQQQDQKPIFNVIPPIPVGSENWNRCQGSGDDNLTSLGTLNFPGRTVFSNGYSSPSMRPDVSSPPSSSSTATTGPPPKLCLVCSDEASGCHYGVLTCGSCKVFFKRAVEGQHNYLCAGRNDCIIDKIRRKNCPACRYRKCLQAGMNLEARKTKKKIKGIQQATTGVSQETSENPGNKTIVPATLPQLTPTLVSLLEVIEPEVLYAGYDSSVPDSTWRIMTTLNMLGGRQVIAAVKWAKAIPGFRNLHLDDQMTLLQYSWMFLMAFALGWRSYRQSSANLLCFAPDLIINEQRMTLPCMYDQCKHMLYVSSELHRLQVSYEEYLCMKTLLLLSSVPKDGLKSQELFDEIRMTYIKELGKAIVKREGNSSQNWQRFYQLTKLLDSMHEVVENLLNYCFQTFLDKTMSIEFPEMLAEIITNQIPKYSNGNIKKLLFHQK
# Assay: Transrepression assay (GITAR), TNFα-β-lactamase reporter in U937 cells
# Format: cell-based
# Conditions: for EC50: IP = inflection point; for Emax: U-937, U937 cells
# Text: Transrepression Assay (GITAR)
# This assay assesses the ability of test compounds to control transcription from the TNFα-β-lactamase reporter gene in U937 cells, a human myelomonocytic leukemia cell line that naturally expresses the human GR. The assay measures compound dependent-repression of the TNFa promoter linked to a reporter gene.
# The human U937 cells that had been stablely transfected with the TNF-a promoter driving ˜-lactamase are used for this assay. U937 cells contain an endogenous glucocorticoid receptor (GR). Cells are maintained in RPMI 1640 Growth medium (GibcoCat#11875-093) containing 25 mM HEPES, 10% FBS, 2 mM L-Glutamine, 1 mM Sodium pyruvate, 25 μg/ml Gentamicin (Gibed Cat#1571 0-064), 1:1000 2-Mercaptoethanol (Gibco Cat#21985-023) and 0.8 mg/ml G418 (Gibco Cat#10131-027). The density of the cells in the flask needs to be about 1×10^6-3×10^6/ml at the time of harvest. Usually, the cells are split to 1.2˜1.4×10^5/ml (1:10) 3 days prior to the assay. 50,000 cells/well are plated in 96 well black-walled plates the day of assay. Test compounds are added 10 J.lL/well, and cells are incubated at 37° C. for 30˜45 min. For assaying compounds, first dilute 1:10 in DMSO to make 1 mM, then further dilute 1:100 in medium to make 10× stock prior to adding to the cells. Add 50 ng/ml PMA (Sigma, cat#P8139) 10 μL/well to a final concentration 5 ng/ml, and 1 μg/ml LPS (Sigma, cat#L4130) 10 μL/well to a final concentration 100 ng/ml. Incubate cells at 370 C overnight for −18 hr. PMA is stored frozen as […] in DMSO. Dilute 1:10 in DMSO for a working stock of 10 μg/ml and store at −20° C. For assaying, dilute the 10 μg/ml working stock 1:200 in medium to make a 10× solution (50 ng/ml). Store frozen LPS at 1 mg/ml in PBS, dilute 1:1000 in medium to make 10×μg/ml) for the assay. Add 6× loading buffer (CCF2-AM) 20 μL/well, and incubate at room temperature for 70-90 min. […] The activity repressed by 100 nM dexamethasone alone is set as 100% activity.
# [1] = activity repressed by 100 nM dexamethasone alone set as 100%
EC50 (U937 cells),Emax [1],"Transrepression U937 Cells GITAR Emax (%) (U937 cells, activity repressed by 100 nM dexamethasone alone set as 100%)",Compound
44 nM,89%,,"CC[C@]12Cc3cnn(-c4ccc(F)cc4)c3C=C1CC[C@@]2(O)CCc1ncccc1F [Example 17, (4aS,5R)-4a-Ethyl-1-(4-fluorophenyl)-5-[2-(3-fluoropyridin-2-yl)ethyl]-1,4,4a,5,6,7-hexahydrocyclopenta[f]indazol-5-ol]"
31 nM,80%,,"CC[C@]12Cc3cnn(-c4cccnc4)c3C=C1CC[C@@]2(O)CCc1ccccc1C#N [Example 5, 2-{2-[(4aS,5R)-4a-Ethyl-5-hydroxy-1-(pyridin-3-yl)-1,4,4a,5,6,7-hexahydrocyclopenta[f]indazol-5-yl]ethyl}benzonitrile]"
217 nM,54%,,"CC[C@]12Cc3cnn(-c4ccccc4)c3C=C1CC[C@@]2(O)CC(O)c1ccccn1 (single isomer, unassigned) [Example 67a]"
162 nM,,60%,"CC[C@]12Cc3cnn(-c4ccc(F)cc4)c3C=C1CC[C@@]2(O)CC(O)c1ncccc1F (stereo partly drawn) [Example 77, (4aS,5R)-4a-Ethyl-1-(4-fluorophenyl)-5-[2-(3-fluoropyridin-2-yl)-2-hydroxyethyl]-1,4,4a,5,6,7-hexahydrocyclopenta[f]indazol-5-ol]"
125 nM,85%,,"CC[C@]12Cc3cnn(-c4ccc(F)cc4)c3C=C1CC[C@@]2(O)CCc1cc(C(F)(F)F)ccn1 [Example 34, (4aS,5R)-4a-Ethyl-1-(4-fluorophenyl)-5-{2-[4-(trifluoromethyl)pyridin-2-yl]ethyl}-1,4,4a,5,6,7-hexahydrocyclopenta[f]indazol-5-ol]"
213 nM,49%,,"OC(C[C@]1(O)CCC2=Cc3c(cnn3-c3ccc(F)cc3)C[C@@]21C1CC1)c1ccccn1 (stereo partly drawn) [Example 78, (4aR,5R)-4a-Cyclopropyl-1-(4-fluorophenyl)-5-[2-hydroxy-2-(pyridin-2-yl)ethyl]-1,4,4a,5,6,7-hexahydrocyclopenta[f]indazol-5-ol]"
84 nM,82%,,"CC[C@]12Cc3cnn(-c4ccc(F)cc4)c3C=C1CC[C@@]2(O)CCc1cc(C)ccn1 [Example 33, (4aS,5R)-4a-Ethyl-1-(4-fluorophenyl)-5-[2-(4-methylpyridin-2-yl)ethyl]-1,4,4a,5,6,7-hexahydrocyclopenta[f]indazol-5-ol]"
167 nM,41%,,"OC(C[C@]1(O)CCC2=Cc3c(cnn3-c3ccc(F)cc3)C[C@@]21C1CC1)c1ccc(F)cn1 (single isomer, unassigned) [Example 79a]"
73 nM,87%,,"N#Cc1ccnc(CC[C@]2(O)CCC3=Cc4c(cnn4-c4ccc(F)cc4)C[C@@]32C2CC2)c1 [Example 35, 2-{2-[(4aR,5R)-4a-Cyclopropyl-1-(4-fluorophenyl)-5-hydroxy-1,4,4a,5,6,7-hexahydrocyclopenta[f]indazol-5-yl]ethyl}pyridine-4-carbonitrile]"
18 nM,71%,,"CC[C@]12Cc3cnn(-c4ccc(F)cc4)c3C=C1CC[C@@]2(O)CC(O)c1ccccn1 (stereo partly drawn) [Example 68, (4aS,5R)-4a-Ethyl-1-(4-fluorophenyl)-5-[2-hydroxy-2-(pyridin-2-yl)ethyl]-1,4,4a,5,6,7-hexahydrocyclopenta[f]indazol-5-ol]"
7 nM,83%,,"NS(=O)(=O)c1ccccc1CC[C@]1(O)CCC2=Cc3c(cnn3-c3cccnc3)C[C@@]21C1CC1 [Example 24, 2-{2-[(4aR,5R)-4a-Cyclopropyl-5-hydroxy-1-(pyridin-3-yl)-1,4,4a,5,6,7-hexahydrocyclopenta[f]indazol-5-yl]ethyl}benzenesulfonamide]"
9 nM,85%,,"CC(C)(CO)NC(=O)c1ccccc1CC[C@]1(O)CCC2=Cc3c(cnn3-c3ccc(F)cc3)C[C@@]21C1CC1 [Example 45, 2-{2-[(4aR,5R)-4a-Cyclopropyl-1-(4-fluorophenyl)-5-hydroxy-1,4,4a,5,6,7-hexahydrocyclopenta[f]indazol-5-yl]ethyl}-N-(1-hydroxy-2-methylpropan-2-yl)benzamide]"
275 nM,64%,,"CC[C@]12Cc3cnn(-c4ccc(F)cc4)c3C=C1CC[C@@]2(O)CC(O)c1ncccc1F (stereo partly drawn) [Example 76, (4aS,5R)-4a-Ethyl-1-(4-fluorophenyl)-5-[2-(3-fluoropyridin-2-yl)-2-hydroxyethyl]-1,4,4a,5,6,7-hexahydrocyclopenta[f]indazol-5-ol]"
262 nM,79%,,"CC[C@]12Cc3cnn(-c4ccc(F)cc4)c3C=C1CC[C@@]2(O)CCc1nccc(C2CC2)c1C(=O)OC [Example 41, Methyl 4-cyclopropyl-2-{2-[(4aS,5R)-4a-ethyl-1-(4-fluorophenyl)-5-hydroxy-1,4,4a,5,6,7-hexahydrocyclopenta[f]indazol-5-yl]ethyl}pyridine-3-carboxylate]"
118 nM,74%,,"CC[C@]12Cc3cnn(-c4ccc(F)cc4)c3C=C1CC[C@@]2(O)CCc1ccccc1C(O)C(N)=O (stereo partly drawn) [Example 25, 2-(2-{2-[(4aS,5R)-4a-Ethyl-1-(4-fluorophenyl)-5-hydroxy-1,4,4a,5,6,7-hexahydrocyclopenta[f]indazol-5-yl]ethyl}phenyl)-2-hydroxyacetamide]"
52 nM,86%,,"NC(=O)CNC(=O)c1cccnc1CC[C@]1(O)CCC2=Cc3c(cnn3-c3ccc(F)cc3)C[C@@]21C1CC1 [Example 43, N-(2-Amino-2-oxoethyl)-2-{2-[(4aR,5R)-4a-cyclopropyl-1-(4-fluorophenyl)-5-hydroxy-1,4,4a,5,6,7-hexahydrocyclopenta[f]indazol-5-yl]ethyl}pyridine-3-carboxamide]"
22 nM,77%,,"NC(=O)c1ccccc1CC[C@]1(O)CCC2=Cc3c(cnn3-c3ccc(F)cc3)C[C@@]21C1CC1 [Example 23, 2-{2-[(4aR,5R)-4a-Cyclopropyl-1-(4-fluorophenyl)-5-hydroxy-1,4,4a,5,6,7-hexahydrocyclopenta[f]indazol-5-yl]ethyl}benzamide]"
228 nM,51%,,"CC[C@]12Cc3cnn(-c4ccc(F)cc4)c3C=C1CC[C@@]2(O)CC(O)c1cc(C#N)ccn1 (stereo partly drawn) [Example 72, 2-{2-[(4aS,5R)-4a-Ethyl-1-(4-fluorophenyl)-5-hydroxy-1,4,4a,5,6,7-hexahydrocyclopenta[f]indazol-5-yl]-1-hydroxyethyl}pyridine-4-carbonitrile]"
16 nM,72%,,"NC(=O)Cc1c(F)cccc1CC[C@]1(O)CCC2=Cc3c(cnn3-c3ccc(F)cc3)C[C@@]21C1CC1 [Example 61, 2-(2-{2-[(4aR,5R)-4a-Cyclopropyl-1-(4-fluorophenyl)-5-hydroxy-1,4,4a,5,6,7-hexahydrocyclopenta[f]indazol-5-yl]ethyl}-6-fluorophenyl)acetamide]"

Compound,EC50 (U937 cells),Emax [1],"Transrepression U937 Cells GITAR Emax (%) (U937 cells, activity repressed by 100 nM dexamethasone alone set as 100%)"
"COc1ccnc(CC[C@]2(O)CCC3=Cc4c(cnn4-c4ccc(F)cc4)C[C@@]32C2CC2)c1C(F)C(N)=O (stereo partly drawn) [Example 66, 2-(2-{2-[(4aR,5R)-4a-Cyclopropyl-1-(4-fluorophenyl)-5-hydroxy-1,4,4a,5,6,7-hexahydrocyclopenta[f]indazol-5-yl]ethyl}-4-methoxypyridin-3-yl)-2-fluoroacetamide]",12 nM,76%,
